Measured values as given in patent publication US9579376B2 (priority 2009, dated 2017).

Assays:
CD8+ T cells = assay: IFN-γ ELISpot deconvolution and follow-up ICS to identify single peptide epitopes; format: cell-based, human; conditions: for antigenicity for persons with HLA A*0201, A*0202 or other HLA-A2 subtypes: Example 1, T-cells from infected patients; for # SUBJECTS: number of HSV-2 seropositive subjects (55 sampled) with CD8+ T cell response to the peptide, ELISpot and follow-up ICS
Description: ELISPOT technology was used to further identify individual peptides.
High throughput intracellular cytokine staining-flow cytometry (ICS) was used to detect IFN-γ, IL-2, TNF-α expression in CD8+ T cells following 6 h exposure of PBMC with HSV-2 peptides (or control antigen) in the presence of co-stimulatory antibodies (α-CD28/α-CD49d) and Brefeldin A. Cytokine responses to peptide antigen were scored positive if they differed from the negative control (p<0.02; Fisher's one-sided test); this cutoff was defined during trial and error validation studies with HSV-2 seronegative subjects and allows for a 5% false positive error rate. Peptide pools giving positive responses by ICS in HSV-2 seropositive subjects were deconvoluted using IFN-γ ELISpot to identify the causative peptide. Deconvolution cutoff was determined as at least 11 spots per well and 3-fold higher spots than DMSO (negative) control.

[1] = tested on: HSV-2 specific CD8+ T cells; assay: CFSE proliferation of peptide exposed PBMC (cell division index); format: cell-based, human; conditions: CFSE stained PBMC; CDI>2 cut-off for proliferation positivity
Excerpt: To evaluate the proliferative capacity of HSV-2 specific CD8+ T cells, we utilized CFSE to stain PBMC prior to epitope specific stimulation. […] CD8+ T cells that recognized UL4945-49 did proliferate (CDI=8.7), but CDI values were below threshold for peptides UL4981-96, UL4993-108 and UL49129-143 (respective CDI=1.8, 1.4 and 1.6). Since T cells specific for UL4945-49 are more abundant that those specific for the other epitopes, the ability of these cells to proliferate likely reflects the epitope dominance observed within UL49.

[2] = tested on: HSV-2 specific CD8+ T cells; conditions: one individual with four HLA-B07 restricted UL49 epitopes; versus other tested epitopes
Description: Identified single peptides were used to individually stimulate CD8+ T cells in subjects with multiple epitopes. These responses were analyzed by ICS to determine the polyfunctional profiles of HSV-2 specific T cells. Single peptides were also used to assess degranulation; the presence of lytic proteins granzyme B and perforin, in HSV-2 specific CD8+ T cells, was determined by flow cytometry. The proliferative capacities of HSV-2 specific T cells were determined by pre-staining peptide exposed PBMC with CFSE. A cell division index (CDI)>2 was used as a cut-off for proliferation positivity.
Single peptides identified during this study were used to activate epitope specific CD8+ T cells. Antigen specific CD8+ T cells were identified using a gating strategy. […] The polyfunctional profiles of responding cells, with reference to the expression of IFN-γ, IL2, and TNF-α, and the mobilization of CD107a were determined.

| Substance | # SUBJECTS (CD8+ T cells) | further results |
| --- | --- | --- |
| 9 mer: 9 amino acid minimal epitope at amino acids 372-380 of HSV-2 UL25 (FLWEDQTLL; herpes simplex virus 2) | – | antigenicity for persons with HLA A*0201, A*0202 or other HLA-A2 subtypes (CD8+ T cells): repeatedly and strongly positive |
| AFEDRSYPAVFYLLQ (herpes simplex virus 2) | 1 | – |
| AQREAAGVYDAVRTW (herpes simplex virus 2) | 2 | – |
| ARPRRSASVAGSHGPG (herpes simplex virus 2) | 2 | CDI (cell division index) [1]: 1.8 |
| CPLLIFDRTRKFVLA | 1 | – |
| DFIWTGNPRTAPRSL | 2 | – |
| DMETGHIGAYVVLVD | 1 | – |
| DRLDNRLQLGMLIPG (herpes simplex virus 2) | 1 | – |
| EAGLMDAATPPARPPA | 1 | – |
| FGGHYMESVFQMYTR (herpes simplex virus 2) | 1 | – |
| GHIGAYVVLVDQTGN | 1 | – |
| GVLVHLRIRTREASF (herpes simplex virus 2) | 1 | – |
| HGPGPARAPPPPGGPV (herpes simplex virus 2) | 1 | CDI (cell division index) [1]: 1.4 |
| HNLFLWEDQTLLRAT | 5 | antigenicity for persons with HLA A*0201, A*0202 or other HLA-A2 subtypes (CD8+ T cells): repeatedly and strongly positive |
| KNLLORANELVNPDA: 15-mer epitope, amino acids 249-263 of HSV-2 UL49 | 1 | – |
| KTSNALCVRGARPFS (herpes simplex virus 2) | 1 | – |
| LHPFCIPCMKTWIPL | 1 | – |
| LMLEYFCRCAREESK (herpes simplex virus 2) | 1 | – |
| LPIAGVSSVVALAPY | 1 | – |
| PKASATPATDPARGR (herpes simplex virus 2) | 1 | CDI (cell division index) [1]: 1.6 |
| PMRARPRGEVRFLHY | 6 | CDI (cell division index) [1]: 8.7; CD107a positive cells among responding cells [2]: less CD107a positive cells relative to IFN-γ+ cells; cytokine levels in responding cells [2]: higher levels of IFN-γ; monofunctional cells among responding cells [2]: less monofunctional cells; response in Elispot and ICS assays (CD8+ T cells; one individual with four HLA-B07 restricted epitopes within UL49, versus other UL49 epitopes): largest detectable response |
| PVGNMLFDQGTLVGA | 1 | – |
| RAAAPAWSRRTLLPE | 3 | – |
| RLGPADRRFVALSGS (herpes simplex virus 2) | 3 | – |
| SMSLADFHGEEFEKL (herpes simplex virus 2) | 1 | – |
